# Measurements: patent US20240174622A1, “COMPOUND AND RADIOACTIVE LABELING COMPOUND” (NIHON MEDI-PHYSICS CO., LTD., priority 2021, published 2024)
# Where “and” joins values, the source holds several entries; their conditions need not be identical. Identical values can stand only once.
# System: LNCaP tumor-transplanted mouse
# Test: Internal radioactivity distribution using LNCaP tumor-transplanted mouse
# Format: in vivo
# How it was run: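 Biodistribution is given as percent injected dose per gram of tissue, measured in blood and organs harvested at time points from 1 h to 192 h. Radiotracers were given by tail-vein injection in saline at 185–259 kBq, n=2–3. Hosts were male CB17 SCID mice carrying LNCaP or PC-3 tumours implanted s.c. in Matrigel 40–60 days earlier.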
smiles,measurement,setting,value
O=C([O-])CN(Cc1cccc(C(=O)[O-])n1)C[C@H](Cc1ccc(NC(=O)[C@H](CCCCNC(=O)CCC(=O)NCCCC[C@H](NC(=O)N[C@@H](CCC(=O)O)C(=O)O)C(=O)O)NC(=O)CCCc2ccc(I)cc2)cc1)N(CC(=O)[O-])Cc1cccc(C(=O)[O-])n1.[111In+3] [[^111In]In-Octapa-2],Blood,1 h after administration,14.4 ± 1.81 % ID/g
same,Brain,1 h after administration,0.20 ± 0.03 % ID/g
same,Heart,1 h after administration,3.98 ± 0.51 % ID/g
same,Intestine,1 h after administration,1.55 ± 0.21 % ID/g
same,Kidney,1 h after administration,121 ± 14.9 % ID/g
same,LNCaP Tumor,1 h after administration,12.5 ± 0.26 % ID/g
same,Liver,1 h after administration,2.75 ± 0.54 % ID/g
same,Lung,1 h after administration,10.1 ± 1.34 % ID/g
same,Muscle,1 h after administration,1.44 ± 0.24 % ID/g
same,Pancreas,1 h after administration,1.73 ± 0.18 % ID/g
same,Spleen,1 h after administration,18.5 ± 4.39 % ID/g
same,Stomach (% ID),1 h after administration,0.51 ± 0.22 % ID
same,Blood,4 h after administration,6.73 ± 1.63 % ID/g
same,Brain,4 h after administration,0.14 ± 0.02 % ID/g
same,Heart,4 h after administration,1.89 ± 0.49 % ID/g
same,Intestine,4 h after administration,1.65 ± 0.37 % ID/g
same,Kidney,4 h after administration,177 ± 35.7 % ID/g
same,LNCaP Tumor,4 h after administration,13.7 ± 3.24 % ID/g
same,Liver,4 h after administration,1.67 ± 0.47 % ID/g
same,Lung,4 h after administration,5.02 ± 0.89 % ID/g
same,Muscle,4 h after administration,0.63 ± 0.19 % ID/g
same,Pancreas,4 h after administration,1.59 ± 0.94 % ID/g
same,Spleen,4 h after administration,13.2 ± 2.66 % ID/g
same,Stomach (% ID),4 h after administration,0.23 ± 0.02 % ID
same,Blood,24 h after administration,0.84 ± 0.27 % ID/g
same,Brain,24 h after administration,0.03 ± 0.01 % ID/g
same,Heart,24 h after administration,0.33 ± 0.05 % ID/g
same,Intestine,24 h after administration,0.82 ± 0.68 % ID/g
same,Kidney,24 h after administration,55.3 ± 19.3 % ID/g
same,LNCaP Tumor,24 h after administration,8.64 ± 2.27 % ID/g
same,Liver,24 h after administration,0.33 ± 0.02 % ID/g
same,Lung,24 h after administration,0.74 ± 0.12 % ID/g
same,Muscle,24 h after administration,0.07 ± 0.02 % ID/g
same,Pancreas,24 h after administration,0.19 ± 0.05 % ID/g
same,Spleen,24 h after administration,1.97 ± 0.90 % ID/g
same,Stomach (% ID),24 h after administration,0.21 ± 0.15 % ID
same,Blood,48 h after administration,0.26 ± 0.23 % ID/g
same,Brain,48 h after administration,0.02 ± 0.01 % ID/g
same,Heart,48 h after administration,0.18 ± 0.12 % ID/g
same,Intestine,48 h after administration,0.68 ± 0.32 % ID/g
same,Kidney,48 h after administration,22.4 ± 14.5 % ID/g
same,LNCaP Tumor,48 h after administration,8.10 ± 2.67 % ID/g
same,Liver,48 h after administration,0.32 ± 0.10 % ID/g
same,Lung,48 h after administration,0.45 ± 0.18 % ID/g
same,Muscle,48 h after administration,0.04 ± 0.05 % ID/g
same,Pancreas,48 h after administration,0.13 ± 0.06 % ID/g
same,Spleen,48 h after administration,1.13 ± 0.70 % ID/g
same,Stomach (% ID),48 h after administration,0.16 ± 0.14 % ID
same,Blood,96 h after administration,0.01 ± 0.01 % ID/g
same,Brain,96 h after administration,0.01 ± 0.00 % ID/g
same,Heart,96 h after administration,0.07 ± 0.02 % ID/g
same,Intestine,96 h after administration,0.45 ± 0.29 % ID/g
same,Kidney,96 h after administration,3.27 ± 0.26 % ID/g
same,LNCaP Tumor,96 h after administration,4.48 ± 0.78 % ID/g
same,Liver,96 h after administration,0.22 ± 0.01 % ID/g
same,Lung,96 h after administration,0.14 ± 0.08 % ID/g
same,Muscle,96 h after administration,0.05 ± 0.02 % ID/g
same,Pancreas,96 h after administration,0.06 ± 0.02 % ID/g
same,Spleen,96 h after administration,0.61 ± 0.04 % ID/g
same,Stomach (% ID),96 h after administration,0.04 ± 0.02 % ID
same,Blood,192 h after administration,0.01 ± 0.01 % ID/g
same,Brain,192 h after administration,0.01 ± 0.01 % ID/g
same,Heart,192 h after administration,0.06 ± 0.02 % ID/g
same,Intestine,192 h after administration,0.27 ± 0.18 % ID/g
same,Kidney,192 h after administration,1.76 ± 0.70 % ID/g
same,LNCaP Tumor,192 h after administration,1.76 ± 0.45 % ID/g
same,Liver,192 h after administration,0.20 ± 0.05 % ID/g
same,Lung,192 h after administration,0.07 ± 0.02 % ID/g
same,Muscle,192 h after administration,0.01 ± 0.01 % ID/g
same,Pancreas,192 h after administration,0.08 ± 0.02 % ID/g
same,Spleen,192 h after administration,0.44 ± 0.12 % ID/g
same,Stomach (% ID),192 h after administration,0.01 ± 0.01 % ID
O=C([O-])CN1CCN(C(CCC(=O)NCCC(=O)N2Cc3ccccc3-c3c(nnn3CCOCCOCCOCCOCCC(=O)NCCCC[C@H](NC(=O)N[C@@H](CCC(=O)O)C(=O)O)C(=O)O)-c3ccccc32)C(=O)[O-])CCN(CC(=O)[O-])CCN(C(CCC(=O)N[C@@H](CCCCNC(=O)CCCc2ccc(I)cc2)C(=O)O)C(=O)[O-])CC1.[111In+3] (stereo partly drawn) [[^111In]In-PtDA],Blood,1 h after administration,19.8 ± 2.74 % ID/g
same,Brain,1 h after administration,0.36 ± 0.05 % ID/g
same,Heart,1 h after administration,5.49 ± 0.77 % ID/g
same,Intestine,1 h after administration,2.66 ± 0.28 % ID/g
same,Kidney,1 h after administration,37.2 % ID/g and 37.2 ± 6.85 % ID/g
same,LNCaP Tumor,1 h after administration,2.18 ± 0.17 % ID/g
same,Liver,1 h after administration,3.51 ± 0.38 % ID/g
same,Lung,1 h after administration,11.9 ± 1.57 % ID/g
same,Muscle,1 h after administration,1.95 ± 0.30 % ID/g
same,Pancreas,1 h after administration,2.31 ± 0.14 % ID/g
same,Spleen,1 h after administration,15.3 ± 4.89 % ID/g
same,Stomach (% ID),1 h after administration,0.79 ± 0.19 % ID
same,Blood,24 h after administration,12.5 ± 1.47 % ID/g
same,Brain,24 h after administration,0.30 ± 0.05 % ID/g
same,Heart,24 h after administration,3.95 ± 0.87 % ID/g
same,Intestine,24 h after administration,1.52 ± 0.41 % ID/g
same,Kidney,24 h after administration,68.0 ± 2.82 % ID/g
same,LNCaP Tumor,24 h after administration,16.0 % ID/g and 16.0 ± 9.49 % ID/g
same,Liver,24 h after administration,3.36 ± 0.77 % ID/g
same,Lung,24 h after administration,8.63 ± 1.31 % ID/g
same,Muscle,24 h after administration,1.28 ± 0.34 % ID/g
same,Pancreas,24 h after administration,2.03 ± 0.48 % ID/g
same,Spleen,24 h after administration,9.69 ± 0.92 % ID/g
same,Stomach (% ID),24 h after administration,0.46 ± 0.23 % ID
same,Blood,48 h after administration,6.33 ± 1.53 % ID/g
same,Brain,48 h after administration,0.20 ± 0.07 % ID/g
same,Heart,48 h after administration,1.98 ± 0.41 % ID/g
same,Intestine,48 h after administration,0.74 ± 0.28 % ID/g
same,Kidney,48 h after administration,55.9 ± 6.39 % ID/g
same,LNCaP Tumor,48 h after administration,18.7 % ID/g and 18.7 ± 5.21 % ID/g
same,Liver,48 h after administration,2.28 ± 0.75 % ID/g
same,Lung,48 h after administration,6.16 ± 1.56 % ID/g
same,Muscle,48 h after administration,0.81 ± 0.40 % ID/g
same,Pancreas,48 h after administration,1.12 ± 0.39 % ID/g
same,Spleen,48 h after administration,10.5 ± 5.62 % ID/g
same,Stomach (% ID),48 h after administration,0.29 ± 0.20 % ID
